Reference: article PMC7083837 (Nature Communications, 2020)
“And” between values parts separate entries of the source, which are not always exact repeats. Equal values may be shown once.

What was measured:
[1] = tested on: extracellular 5-HT levels in rat hippocampus; experiment: Microdialysis in ventral hippocampus of freely moving rats; format: in vivo; set-up: extracellular 5-HT level / AUC: unit not given here;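 on extracellular 5-HT level: percent of mean basal level in three fractions before perfusion start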
[2] = target: T1, SERT F556R (Homo sapiens, UniProt P31645, F556R); experiment: [3H]5-HT uptake in intact COS-7 cells; format: cell-based; details: for 5-HT uptake inhibition by Lu AF60097: Fig 5A
T1 construct: expressed in transfected cells; host or cells: COS-7

[3] = target: T2, SERT WT (Homo sapiens, UniProt P31645); experiment: [3H]S-CIT dissociation rate assay (allosteric potency); format: binding
T2 construct: expressed in transfected cells; host or cells: COS-7

[4] = target: T2, SERT WT; experiment: [3H]IMI dissociation rate assay (allosteric potency); format: binding;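 further: membranes of COS-7 cells transiently expressing hSERT, dissociation of prebound radioligand tracked by filtration over seven time points (5–70 min), rate constant with test ligand expressed relative to buffer-only rate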
[5] = target: T3, SERT E494Q (Homo sapiens, UniProt P31645, E494Q); experiment: [3H]IMI dissociation rate assay; format: binding
T3 construct: expressed in transfected cells; host or cells: COS-7
T3 sequence (P31645 whole entry E494Q): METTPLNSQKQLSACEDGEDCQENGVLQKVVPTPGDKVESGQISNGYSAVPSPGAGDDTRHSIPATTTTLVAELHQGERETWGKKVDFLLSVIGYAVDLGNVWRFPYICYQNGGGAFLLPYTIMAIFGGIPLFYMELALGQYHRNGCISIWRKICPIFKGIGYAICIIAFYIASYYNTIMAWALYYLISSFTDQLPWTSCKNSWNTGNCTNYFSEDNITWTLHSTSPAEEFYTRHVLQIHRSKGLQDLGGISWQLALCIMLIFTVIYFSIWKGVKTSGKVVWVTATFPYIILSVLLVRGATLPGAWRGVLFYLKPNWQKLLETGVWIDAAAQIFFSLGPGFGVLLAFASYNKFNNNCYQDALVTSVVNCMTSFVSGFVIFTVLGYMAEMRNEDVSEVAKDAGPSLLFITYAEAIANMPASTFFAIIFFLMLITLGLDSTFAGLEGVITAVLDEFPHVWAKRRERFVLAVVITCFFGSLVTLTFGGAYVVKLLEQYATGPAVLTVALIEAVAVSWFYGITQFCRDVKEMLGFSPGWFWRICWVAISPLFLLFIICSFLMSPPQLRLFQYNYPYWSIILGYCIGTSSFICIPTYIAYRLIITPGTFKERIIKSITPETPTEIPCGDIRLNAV

T1 sequence (P31645 whole entry F556R): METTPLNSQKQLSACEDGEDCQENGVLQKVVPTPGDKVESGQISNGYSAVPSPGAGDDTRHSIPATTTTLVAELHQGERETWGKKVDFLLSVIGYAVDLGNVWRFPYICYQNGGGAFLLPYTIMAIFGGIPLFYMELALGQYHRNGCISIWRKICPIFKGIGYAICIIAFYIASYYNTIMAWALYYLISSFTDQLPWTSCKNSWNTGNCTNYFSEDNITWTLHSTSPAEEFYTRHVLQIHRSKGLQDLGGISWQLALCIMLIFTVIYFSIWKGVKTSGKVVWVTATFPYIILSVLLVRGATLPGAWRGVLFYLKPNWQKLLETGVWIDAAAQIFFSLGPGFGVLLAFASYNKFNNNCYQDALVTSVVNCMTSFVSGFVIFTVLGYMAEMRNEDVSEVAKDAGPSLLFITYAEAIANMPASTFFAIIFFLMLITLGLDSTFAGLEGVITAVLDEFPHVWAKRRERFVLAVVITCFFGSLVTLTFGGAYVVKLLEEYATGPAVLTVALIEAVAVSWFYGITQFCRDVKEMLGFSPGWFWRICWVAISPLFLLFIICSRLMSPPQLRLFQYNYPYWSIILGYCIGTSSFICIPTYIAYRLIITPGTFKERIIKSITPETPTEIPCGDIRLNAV
T2 sequence (P31645 whole entry): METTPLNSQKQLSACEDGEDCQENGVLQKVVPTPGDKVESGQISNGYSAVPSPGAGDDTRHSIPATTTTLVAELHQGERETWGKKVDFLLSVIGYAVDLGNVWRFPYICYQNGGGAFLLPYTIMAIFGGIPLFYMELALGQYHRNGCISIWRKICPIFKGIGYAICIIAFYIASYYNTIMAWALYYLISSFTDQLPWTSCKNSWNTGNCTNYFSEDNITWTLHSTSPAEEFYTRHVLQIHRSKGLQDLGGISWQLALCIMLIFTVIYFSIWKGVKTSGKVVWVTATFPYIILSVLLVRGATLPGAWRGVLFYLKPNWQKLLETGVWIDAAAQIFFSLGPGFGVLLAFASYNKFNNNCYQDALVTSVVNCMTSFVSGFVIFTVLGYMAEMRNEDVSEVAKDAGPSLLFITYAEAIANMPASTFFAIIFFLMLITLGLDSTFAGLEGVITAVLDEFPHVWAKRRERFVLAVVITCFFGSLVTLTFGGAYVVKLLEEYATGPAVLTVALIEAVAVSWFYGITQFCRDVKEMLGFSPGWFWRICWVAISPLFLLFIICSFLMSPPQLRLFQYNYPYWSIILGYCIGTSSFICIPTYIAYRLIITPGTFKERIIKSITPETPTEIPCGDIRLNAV

5-HT uptake inhibition by Lu AF60097 ([2]; [Lu AF60097] -5.5): 0.1354 | 5-HT uptake inhibition by Lu AF60097 ([2]; [Lu AF60097] -6): 0.2671 | 5-HT uptake inhibition by Lu AF60097 ([2]; [Lu AF60097] -6.5): 0.5785 | 5-HT uptake inhibition by Lu AF60097 ([2]; [Lu AF60097] -7): 0.7467 | 5-HT uptake inhibition by Lu AF60097 ([2]; [Lu AF60097] -7.5): 0.9156 | 5-HT uptake inhibition by Lu AF60097 ([2]; [Lu AF60097] -8): 0.9992 | 5-HT uptake inhibition by Lu AF60097 ([2]; [Lu AF60097] -9): 0.9608 | 5-HT uptake inhibition by Lu AF60097 ([2]; [Lu AF60097] -10): 1.013 | Ki ([2]; SERT F556R): 260 nM | [^3H]S-CIT dissociation relative to control (source data Fig 3B) ([3]; log conc -4): 0.1541 and 0.1918 and 0.2298 | [^3H]S-CIT dissociation relative to control (source data Fig 3B) ([3]; log conc -6.86273): 0.9943 and 0.9294 and 0.9623 | IC50 ([3]; read-out: Allosteric potency inhibition of [^3H]S-CIT dissociation (IC50)): 6.5 µM | Higher allosteric potency with prebound [^3H]IMI relative to prebound [^3H]S-CIT ([4]; SERT WT): 200 fold | [^3H]IMI dissociation relative to control (source data Fig 3C) ([4]; SERT WT, log conc -5.4318): 0.0325 | [^3H]IMI dissociation relative to control (source data Fig 3C) ([4]; SERT WT, log conc -8.7712): 0.9679 and 0.8619 | IC50 ([4]; SERT WT, read-out: Allosteric potency inhibition of [^3H]IMI dissociation (IC50)): 31.4 nM and 31 nM | Gain in allosteric potency relative to any other reported S2-bound hSERT ligand ([4]; comparison with ref 22): > 100 fold | Increase in allosteric potency compared with citalopram ([4]; in the presence of S1:IMI): > 150 fold | ΔAP (mut/WT), change in allosteric potency relative to SERT WT ([5]; E494Q, [^3H]IMI dissociation): 5 | IC50 ([5]; SERT E494Q, read-out: Allosteric potency inhibition of [^3H]IMI dissociation (IC50)): 170 nM
SMILES: NC(=O)c1ccc2c(c1)CO[C@@]2(CCCN1CCC(c2ccc3ccc(=O)[nH]c3c2)CC1)c1ccc(F)cc1 [Lu AF60097, (S)-1-(4-fluorophenyl)-1-(3-(4-(2-oxo-1,2-dihydroquinolin-7-yl)piperidin-1-yl)propyl)-1,3-dihydroisobenzofuran-5-carboxamide]
Maximum extracellular 5-HT level, % of basal level ([1]; 1 µl (250 nM) injected in ventral hippocampus): 602 ± 156% | Hippocampal 5-HT level above saline ([1]; 1 µl of 250 nM injected locally, after 2 h): about 6 fold | extracellular 5-HT level ([1]; Fig 6A, time 0): 99.15 and 92.9 and 84.7 and 127.51 and 96.31 and 90.57 | extracellular 5-HT level ([1]; Fig 6A, time -20): 99.13 and 103.53 and 109.41 and 104.22 and 103.69 and 101.06 | extracellular 5-HT level ([1]; Fig 6A, time -40, single animals): 101.72 and 103.57 and 105.89 and 68.26 and 100 and 108.37 | AUC ([1]; Fig 6B Inset, single animals): 160 and 33 and 22 and 96 and 107 and 114 and 155 and 78 and 140 and 79 and 75 and 81 and 29 and 143 and 77 | extracellular 5-HT level ([1]; Fig 6B, Time -40, single animals): 98.41 and 131.26 and 120.63 and 87.45 and 121.36 and 138.4 and 108.61 and 82.38 and 85.26 and 67.86 and 55.86 and 116.12 | [^3H]S-CIT dissociation relative to control (source data Fig 3B) ([3]; log conc -4.47756): 0.2646 and 0.3943 and 0.2986 and 0.219 and 0.3366 | [^3H]S-CIT dissociation relative to control (source data Fig 3B) ([3]; log conc -4.95468): 0.4248 and 0.6032 and 0.3921 and 0.3044 and 0.3481 | [^3H]S-CIT dissociation relative to control (source data Fig 3B) ([3]; log conc -5.4318): 0.6087 and 0.8042 and 0.6275 and 0.541 and 0.6453 | [^3H]S-CIT dissociation relative to control (source data Fig 3B) ([3]; log conc -5.9101): 0.7519 and 0.9034 and 0.8094 and 0.7437 and 0.8779 | [^3H]S-CIT dissociation relative to control (source data Fig 3B) ([3]; log conc -6.38561): 0.8673 and 0.9045 and 0.9664 and 0.838 and 0.8643 | [^3H]IMI dissociation relative to control (source data Fig 3C) ([4]; SERT WT, log conc -7.3398): 0.5967 and 0.5153 and 0.3551 and 0.4862 and 0.4455 | [^3H]IMI dissociation relative to control (source data Fig 3C) ([4]; SERT WT, log conc -7.817): 0.6907 and 0.7383 and 0.5957 and 0.7538 and 0.5364 | [^3H]IMI dissociation relative to control (source data Fig 3C) ([4]; SERT WT, log conc -8.2941): 0.7767 and 0.8969 and 0.8389 and 0.8612 and 0.685
